Data: ChEMBL document CHEMBL1909046, “DrugMatrix in vitro pharmacology data”

How the values were obtained:
[1] = target: T1, Alpha-2C adrenergic receptor (Homo sapiens, UniProt P18825); test: DRUGMATRIX: Adrenergic Alpha-2C radioligand binding (ligand: [3H] MK-912); assay type: cell membranes, Sf9, Membrane; conditions: sf9
T1 sequence (P18825 whole entry): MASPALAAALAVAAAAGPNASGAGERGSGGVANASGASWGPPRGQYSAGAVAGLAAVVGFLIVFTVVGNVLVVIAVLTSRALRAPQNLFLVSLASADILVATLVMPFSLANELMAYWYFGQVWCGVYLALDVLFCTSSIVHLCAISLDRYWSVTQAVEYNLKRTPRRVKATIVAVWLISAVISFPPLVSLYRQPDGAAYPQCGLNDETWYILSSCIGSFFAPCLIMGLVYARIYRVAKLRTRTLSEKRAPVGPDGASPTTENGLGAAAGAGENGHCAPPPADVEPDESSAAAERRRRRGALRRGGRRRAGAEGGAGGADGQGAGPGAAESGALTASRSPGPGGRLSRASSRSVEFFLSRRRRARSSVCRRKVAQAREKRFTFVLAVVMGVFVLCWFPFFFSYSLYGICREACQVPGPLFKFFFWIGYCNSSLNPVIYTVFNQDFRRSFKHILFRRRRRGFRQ

[2] = DRUGMATRIX: Atrial Natriuretic Factor (ANF) radioligand binding (ligand: [125I] ANF (rat)); assay type: cell membranes, Cavia porcellus, Dunkin-Hartley, Adrenal gland, Membrane; conditions: Not Active = under 50% inhibition at 10 µM
[3] = DRUGMATRIX: Sigma2 radioligand binding (ligand: [3H] Ifenprodil); assay type: cell membranes, Rattus norvegicus, Wistar, Brain, Membrane; conditions: Not Active = under 50% inhibition at 10 µM
Thromboxane-A synthase = target: T2, Thromboxane-A synthase (Homo sapiens, UniProt P24557); test: biochemical; assay type: tissue-based, Platelet; conditions: platelet;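 note: enzyme inhibition assay with PGH2 supplied as substrate; in other assays of this panel Not Active means under 50% inhibition at 10 µM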
T2 sequence (P24557 whole entry): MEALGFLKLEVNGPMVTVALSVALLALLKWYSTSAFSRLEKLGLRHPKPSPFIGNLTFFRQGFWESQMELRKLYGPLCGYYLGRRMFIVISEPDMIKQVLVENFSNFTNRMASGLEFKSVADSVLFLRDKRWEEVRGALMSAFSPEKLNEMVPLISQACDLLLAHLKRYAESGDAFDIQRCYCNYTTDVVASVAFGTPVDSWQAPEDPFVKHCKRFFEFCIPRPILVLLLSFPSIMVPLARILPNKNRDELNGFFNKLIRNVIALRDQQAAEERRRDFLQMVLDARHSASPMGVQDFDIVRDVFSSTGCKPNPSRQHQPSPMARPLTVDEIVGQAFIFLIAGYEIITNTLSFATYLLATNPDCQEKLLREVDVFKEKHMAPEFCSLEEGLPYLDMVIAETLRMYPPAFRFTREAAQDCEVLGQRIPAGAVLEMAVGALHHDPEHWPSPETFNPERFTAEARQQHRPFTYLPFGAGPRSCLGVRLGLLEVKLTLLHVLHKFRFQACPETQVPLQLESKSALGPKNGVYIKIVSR

[4] = target: Vascular endothelial growth factor receptor 1 (Homo sapiens, UniProt P17948); assay type: cell-based; conditions: huvec; note: in other assays of this panel Not Active means under 50% inhibition at 10 µM
Vascular endothelial growth factor receptor 1, sequence (P17948 whole entry): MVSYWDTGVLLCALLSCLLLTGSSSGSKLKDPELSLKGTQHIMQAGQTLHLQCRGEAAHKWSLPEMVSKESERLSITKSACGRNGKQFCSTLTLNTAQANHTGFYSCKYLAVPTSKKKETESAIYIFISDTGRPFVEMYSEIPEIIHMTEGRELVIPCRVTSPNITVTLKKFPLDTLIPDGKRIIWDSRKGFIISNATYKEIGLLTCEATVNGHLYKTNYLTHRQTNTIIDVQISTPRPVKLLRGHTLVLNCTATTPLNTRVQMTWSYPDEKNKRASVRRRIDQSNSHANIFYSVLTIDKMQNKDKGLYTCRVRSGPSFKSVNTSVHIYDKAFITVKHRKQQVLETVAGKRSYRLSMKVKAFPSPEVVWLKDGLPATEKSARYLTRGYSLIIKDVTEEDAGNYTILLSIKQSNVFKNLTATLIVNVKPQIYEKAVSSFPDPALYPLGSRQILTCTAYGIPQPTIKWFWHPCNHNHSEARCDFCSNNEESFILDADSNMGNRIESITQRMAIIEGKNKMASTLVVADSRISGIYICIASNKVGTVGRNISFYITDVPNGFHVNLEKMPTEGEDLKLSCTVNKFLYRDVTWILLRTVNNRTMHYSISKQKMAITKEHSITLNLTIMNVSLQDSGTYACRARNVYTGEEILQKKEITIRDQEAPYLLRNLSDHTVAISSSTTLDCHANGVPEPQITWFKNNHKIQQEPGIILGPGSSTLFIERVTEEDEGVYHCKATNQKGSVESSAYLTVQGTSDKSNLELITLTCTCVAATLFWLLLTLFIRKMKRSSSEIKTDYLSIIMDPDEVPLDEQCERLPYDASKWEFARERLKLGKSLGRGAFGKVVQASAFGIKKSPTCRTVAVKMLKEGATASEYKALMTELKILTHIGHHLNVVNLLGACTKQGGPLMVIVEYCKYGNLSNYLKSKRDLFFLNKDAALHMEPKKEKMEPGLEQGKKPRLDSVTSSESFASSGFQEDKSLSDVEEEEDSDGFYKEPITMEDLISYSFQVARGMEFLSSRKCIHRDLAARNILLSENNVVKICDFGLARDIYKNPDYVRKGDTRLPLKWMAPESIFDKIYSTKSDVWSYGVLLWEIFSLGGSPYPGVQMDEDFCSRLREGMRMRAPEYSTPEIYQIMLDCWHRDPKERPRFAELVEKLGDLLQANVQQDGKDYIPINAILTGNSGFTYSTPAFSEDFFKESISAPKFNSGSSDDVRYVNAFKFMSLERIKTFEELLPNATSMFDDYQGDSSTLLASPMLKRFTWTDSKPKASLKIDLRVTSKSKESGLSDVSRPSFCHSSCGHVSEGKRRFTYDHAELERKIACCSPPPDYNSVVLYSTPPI

Carbonic anhydrase 2 = Carbonic anhydrase 2 (Homo sapiens, UniProt P00918); test: DRUGMATRIX: Carbonic Anhydrase II enzyme inhibition (substrate: 4-Nitrophenyl acetate (4-NPA)); assay type: tissue-based, Erythrocyte; conditions: erythrocyte; Not Active = under 50% inhibition at 10 µM
[5] = target: C-C chemokine receptor type 5 (Homo sapiens, UniProt P51681); assay type: cell membranes, Membrane; conditions: hek293; note: in other assays of this panel Not Active means under 50% inhibition at 10 µM
C-C chemokine receptor type 5, sequence (P51681 whole entry): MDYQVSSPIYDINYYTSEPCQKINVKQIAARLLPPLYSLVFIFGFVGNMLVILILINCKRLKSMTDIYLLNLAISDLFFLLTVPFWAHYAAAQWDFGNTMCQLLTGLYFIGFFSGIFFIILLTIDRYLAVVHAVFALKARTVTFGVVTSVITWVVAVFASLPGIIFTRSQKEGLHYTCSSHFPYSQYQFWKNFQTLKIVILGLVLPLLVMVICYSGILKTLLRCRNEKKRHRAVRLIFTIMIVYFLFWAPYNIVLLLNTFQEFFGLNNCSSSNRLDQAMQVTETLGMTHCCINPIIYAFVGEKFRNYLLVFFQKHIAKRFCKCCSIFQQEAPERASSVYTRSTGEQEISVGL

D(4) dopamine receptor = target: T3, D(4) dopamine receptor (Homo sapiens, UniProt P21917); test: DRUGMATRIX: Dopamine D4.2 radioligand binding (ligand: [3H] Spiperone); assay type: cell membranes, CHO-K1, Membrane; conditions: cho-k1; Not Active = under 50% inhibition at 10 µM
T3 sequence (P21917 whole entry): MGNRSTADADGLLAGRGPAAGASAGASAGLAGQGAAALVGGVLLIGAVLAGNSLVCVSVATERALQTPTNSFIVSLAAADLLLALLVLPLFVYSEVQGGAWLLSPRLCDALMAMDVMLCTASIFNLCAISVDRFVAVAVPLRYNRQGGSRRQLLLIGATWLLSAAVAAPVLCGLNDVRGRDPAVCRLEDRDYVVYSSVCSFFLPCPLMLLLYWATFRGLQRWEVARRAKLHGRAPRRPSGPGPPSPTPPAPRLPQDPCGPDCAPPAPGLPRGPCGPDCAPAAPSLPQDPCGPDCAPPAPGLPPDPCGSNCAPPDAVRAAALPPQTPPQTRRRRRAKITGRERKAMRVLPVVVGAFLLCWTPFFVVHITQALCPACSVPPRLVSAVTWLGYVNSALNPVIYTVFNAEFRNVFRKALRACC

[6] = target: Sodium-dependent dopamine transporter (Homo sapiens, UniProt Q01959); test: DRUGMATRIX: Dopamine Transporter radioligand binding (ligand: [125I] RTI-55); assay type: cell membranes, CHO-K1, Membrane; conditions: cho-k1; Not Active = under 50% inhibition at 10 µM
Sodium-dependent dopamine transporter, sequence (Q01959 whole entry): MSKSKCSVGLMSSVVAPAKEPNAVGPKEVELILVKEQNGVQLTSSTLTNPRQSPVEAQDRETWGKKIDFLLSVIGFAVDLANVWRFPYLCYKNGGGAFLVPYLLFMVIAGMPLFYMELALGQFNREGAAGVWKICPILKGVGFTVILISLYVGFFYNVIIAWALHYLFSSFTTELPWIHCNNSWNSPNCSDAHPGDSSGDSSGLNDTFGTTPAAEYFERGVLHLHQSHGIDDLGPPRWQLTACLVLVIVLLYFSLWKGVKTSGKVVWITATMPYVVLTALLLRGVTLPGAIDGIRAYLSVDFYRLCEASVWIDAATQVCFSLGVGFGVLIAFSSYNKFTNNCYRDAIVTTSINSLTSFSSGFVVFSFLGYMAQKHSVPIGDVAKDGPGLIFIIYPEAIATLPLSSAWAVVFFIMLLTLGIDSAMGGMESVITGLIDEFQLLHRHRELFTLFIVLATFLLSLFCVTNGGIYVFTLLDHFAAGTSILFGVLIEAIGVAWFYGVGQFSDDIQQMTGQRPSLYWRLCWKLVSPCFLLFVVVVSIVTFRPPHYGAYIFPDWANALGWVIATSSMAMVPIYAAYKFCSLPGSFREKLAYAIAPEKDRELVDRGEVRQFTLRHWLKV

Glycine receptor = Glycine receptor (Rattus norvegicus, UniProt P22771+P24524+P07727+P20781); assay type: cell membranes, Wistar, Spinal cord, Membrane; note: in other assays of this panel Not Active means under 50% inhibition at 10 µM
[7] = DRUGMATRIX: Imidazoline I2, Central radioligand binding (ligand: [3H] Idazoxan); assay type: cell membranes, Rattus norvegicus, Wistar, Cerebral cortex, Membrane; conditions: Not Active = under 50% inhibition at 10 µM
[8] = DRUGMATRIX: Leukotriene, BLT (LTB4) radioligand binding (ligand: [3H]LTB4); assay type: cell membranes, Membrane; conditions: u-937; Not Active = under 50% inhibition at 10 µM
Nitric oxide synthase 1 = Nitric oxide synthase 1 (Rattus norvegicus, UniProt P29476); assay type: tissue-based, Cerebellum; note: in other assays of this panel Not Active means under 50% inhibition at 10 µM
Nitric oxide synthase 1, sequence (P29476 whole entry): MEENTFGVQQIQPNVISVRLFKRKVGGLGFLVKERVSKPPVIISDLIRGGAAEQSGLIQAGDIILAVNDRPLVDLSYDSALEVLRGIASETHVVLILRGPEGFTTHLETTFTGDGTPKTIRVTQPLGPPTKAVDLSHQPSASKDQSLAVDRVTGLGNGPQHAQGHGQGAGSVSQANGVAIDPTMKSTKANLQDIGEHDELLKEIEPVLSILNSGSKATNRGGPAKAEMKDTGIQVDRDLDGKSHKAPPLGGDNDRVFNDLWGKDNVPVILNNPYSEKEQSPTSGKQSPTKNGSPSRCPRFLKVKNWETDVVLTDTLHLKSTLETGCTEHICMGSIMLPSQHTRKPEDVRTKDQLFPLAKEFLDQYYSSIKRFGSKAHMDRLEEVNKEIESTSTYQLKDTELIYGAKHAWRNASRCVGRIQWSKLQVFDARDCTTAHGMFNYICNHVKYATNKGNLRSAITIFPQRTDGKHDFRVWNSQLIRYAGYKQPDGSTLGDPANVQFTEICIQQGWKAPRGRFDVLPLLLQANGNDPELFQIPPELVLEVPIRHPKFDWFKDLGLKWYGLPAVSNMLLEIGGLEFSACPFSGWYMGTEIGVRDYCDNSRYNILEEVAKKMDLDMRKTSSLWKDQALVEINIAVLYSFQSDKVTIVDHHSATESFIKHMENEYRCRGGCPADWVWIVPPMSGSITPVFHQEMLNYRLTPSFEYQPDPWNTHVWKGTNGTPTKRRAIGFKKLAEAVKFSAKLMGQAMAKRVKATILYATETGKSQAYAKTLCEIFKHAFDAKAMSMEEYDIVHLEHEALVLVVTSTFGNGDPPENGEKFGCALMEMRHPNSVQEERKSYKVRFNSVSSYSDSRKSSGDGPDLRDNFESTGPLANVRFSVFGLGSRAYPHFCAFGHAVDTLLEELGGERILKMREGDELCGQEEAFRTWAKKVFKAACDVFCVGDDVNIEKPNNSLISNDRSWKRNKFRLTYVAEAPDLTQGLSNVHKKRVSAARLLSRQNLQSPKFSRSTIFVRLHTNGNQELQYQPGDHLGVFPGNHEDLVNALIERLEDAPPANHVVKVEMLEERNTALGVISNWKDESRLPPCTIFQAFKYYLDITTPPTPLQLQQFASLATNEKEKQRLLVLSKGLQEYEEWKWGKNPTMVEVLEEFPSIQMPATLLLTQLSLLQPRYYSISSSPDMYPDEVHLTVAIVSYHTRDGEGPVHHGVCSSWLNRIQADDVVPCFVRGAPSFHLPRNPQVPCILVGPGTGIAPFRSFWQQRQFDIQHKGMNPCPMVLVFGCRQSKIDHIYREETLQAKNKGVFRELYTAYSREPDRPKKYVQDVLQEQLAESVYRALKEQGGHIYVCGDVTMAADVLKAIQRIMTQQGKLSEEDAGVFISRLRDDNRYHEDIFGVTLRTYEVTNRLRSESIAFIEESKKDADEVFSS

Caspase-1 = target: T4, Caspase-1 (Homo sapiens, UniProt P29466); parameters: species or system Escherichia coli
T4 sequence (P29466 whole entry): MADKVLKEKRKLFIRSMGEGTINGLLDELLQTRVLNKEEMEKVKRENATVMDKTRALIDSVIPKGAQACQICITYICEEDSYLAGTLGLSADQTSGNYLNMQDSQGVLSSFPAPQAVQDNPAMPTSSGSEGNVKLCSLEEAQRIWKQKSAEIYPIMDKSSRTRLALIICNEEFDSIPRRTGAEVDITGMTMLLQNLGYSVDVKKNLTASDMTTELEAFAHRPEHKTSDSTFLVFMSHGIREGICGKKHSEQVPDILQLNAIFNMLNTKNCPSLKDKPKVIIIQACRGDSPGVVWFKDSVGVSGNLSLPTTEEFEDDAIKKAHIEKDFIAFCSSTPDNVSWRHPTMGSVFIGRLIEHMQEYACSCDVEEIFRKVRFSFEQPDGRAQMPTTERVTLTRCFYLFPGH

Cc1cc(NS(=O)(=O)c2ccc(N)cc2)no1 [SULFAMETHOXAZOLE]
Not Active: IC50 [1] | IC50 [2] | Ki [2] | IC50 [3] | Ki [3] | IC50 (Thromboxane-A synthase) | IC50 [4] | IC50 (Carbonic anhydrase 2) | IC50 [5] | IC50 (D(4) dopamine receptor) | IC50 [6] | IC50 (Glycine receptor) | IC50 [7] | Ki [7] | IC50 [8] | Ki [8] | IC50 (Nitric oxide synthase 1) | IC50 (Caspase-1)

Nc1ccc(S(=O)(=O)Nc2ccnn2-c2ccccc2)cc1 [SULFAPHENAZOLE]
Not Active: IC50 [1] | IC50 [2] | Ki [2] | IC50 [3] | Ki [3] | IC50 (Thromboxane-A synthase) | IC50 [4] | IC50 (Carbonic anhydrase 2) | IC50 [5] | IC50 (D(4) dopamine receptor) | IC50 [6] | IC50 (Glycine receptor) | IC50 [7] | Ki [7] | IC50 [8] | Ki [8] | IC50 (Nitric oxide synthase 1) | IC50 (Caspase-1)

C=CC[C@@H]1/C=C(\C)C[C@H](C)C[C@H](OC)[C@H]2O[C@@](O)(C(=O)C(=O)N3CCCC[C@H]3C(=O)O[C@H](/C(C)=C/[C@@H]3CC[C@@H](O)[C@H](OC)C3)[C@H](C)[C@@H](O)CC1=O)[C@H](C)C[C@@H]2OC [TACROLIMUS ANHYDROUS]
Not Active: IC50 [1] | IC50 [2] | Ki [2] | IC50 [3] | Ki [3] | IC50 (Thromboxane-A synthase) | IC50 [4] | IC50 (Carbonic anhydrase 2) | IC50 [5] | IC50 (D(4) dopamine receptor) | IC50 [6] | IC50 (Glycine receptor) | IC50 [7] | Ki [7] | IC50 [8] | Ki [8] | IC50 (Nitric oxide synthase 1) | IC50 (Caspase-1)

CC1CN(c2cc3c(cc2F)c(=O)c(C(=O)O)cn3-c2ccc(F)cc2F)CCN1 (stereo not drawn) [TEMAFLOXACIN]
Not Active: IC50 [1] | IC50 [2] | Ki [2] | IC50 [3] | Ki [3] | IC50 (Thromboxane-A synthase) | IC50 [4] | IC50 (Carbonic anhydrase 2) | IC50 [5] | IC50 (D(4) dopamine receptor) | IC50 [6] | IC50 (Glycine receptor) | IC50 [7] | Ki [7] | IC50 [8] | Ki [8] | IC50 (Nitric oxide synthase 1) | IC50 (Caspase-1)

CC(C)(C)NCC(O)c1cc(O)cc(O)c1 (stereo not drawn) [TERBUTALINE]
Not Active: IC50 [1] | IC50 [2] | Ki [2] | IC50 [3] | Ki [3] | IC50 (Thromboxane-A synthase) | IC50 [4] | IC50 (Carbonic anhydrase 2) | IC50 [5] | IC50 (D(4) dopamine receptor) | IC50 [6] | IC50 (Glycine receptor) | IC50 [7] | Ki [7] | IC50 [8] | Ki [8] | IC50 (Nitric oxide synthase 1) | IC50 (Caspase-1)

CN(C)[C@@H]1C(O)=C(C(N)=O)C(=O)[C@@]2(O)C(O)=C3C(=O)c4c(O)cccc4[C@@](C)(O)[C@H]3C[C@@H]12 [TETRACYCLINE]
Not Active: IC50 [1] | IC50 [2] | Ki [2] | IC50 [3] | Ki [3] | IC50 (Thromboxane-A synthase) | IC50 [4] | IC50 (Carbonic anhydrase 2) | IC50 [5] | IC50 (D(4) dopamine receptor) | IC50 [6] | IC50 (Glycine receptor) | IC50 [7] | Ki [7] | IC50 [8] | Ki [8] | IC50 (Nitric oxide synthase 1) | IC50 (Caspase-1)
